Results as given in PubChem BioAssay (NCI).
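Tested at 5 concentrations; 48 h exposure; 96-well plates; endpoints linearly interpolated, else capped at highest concentration. TGI marks complete inhibition of growth.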

Columns and labels:
Test in all cases: NCI tumour cell line growth inhibition, 48 h
786-0 renal = test system: 786-0 renal
A498 renal = test system: A498 renal
A549 NSCLC = test system: A549 NSCLC
ACHN renal = test system: ACHN renal
BT-549 breast = test system: BT-549 breast
CAKI-1 renal = test system: CAKI-1 renal
CCRF-CEM leukemia = test system: CCRF-CEM leukemia
COLO 205 colon = test system: COLO 205 colon
DU-145 prostate = test system: DU-145 prostate
EKVX NSCLC = test system: EKVX NSCLC
HCT-116 colon = test system: HCT-116 colon
HCT-15 colon = test system: HCT-15 colon
HL-60(TB) leukemia = test system: HL-60(TB) leukemia
HOP-62 NSCLC = test system: HOP-62 NSCLC
HS 578T breast = test system: HS 578T breast
HT29 colon = test system: HT29 colon
IGROV1 ovarian = test system: IGROV1 ovarian
K-562 leukemia = test system: K-562 leukemia
KM12 colon = test system: KM12 colon
M14 melanoma = test system: M14 melanoma
MCF7 breast = test system: MCF7 breast
MDA-MB-231 breast = test system: MDA-MB-231 breast
MDA-MB-435 = test system: MDA-MB-435
MDA-N = test system: MDA-N
MOLT-4 leukemia = test system: MOLT-4 leukemia
NCI-H226 lung = test system: NCI-H226 lung
NCI-H23 lung = test system: NCI-H23 lung
NCI-H460 lung = test system: NCI-H460 lung
NCI/ADR-RES ovarian = test system: NCI/ADR-RES ovarian
OVCAR-3 ovarian = test system: OVCAR-3 ovarian
OVCAR-5 ovarian = test system: OVCAR-5 ovarian
OVCAR-8 ovarian = test system: OVCAR-8 ovarian
PC-3 prostate = test system: PC-3 prostate
RPMI-8226 leukemia = test system: RPMI-8226 leukemia
RXF 393 renal = test system: RXF 393 renal
SF-268 CNS = test system: SF-268 CNS
SF-295 CNS = test system: SF-295 CNS
SF-539 CNS = test system: SF-539 CNS
SK-MEL-2 melanoma = test system: SK-MEL-2 melanoma
SK-MEL-28 melanoma = test system: SK-MEL-28 melanoma
SK-MEL-5 melanoma = test system: SK-MEL-5 melanoma
SN12C renal = test system: SN12C renal
SNB-19 CNS = test system: SNB-19 CNS
SNB-75 CNS = test system: SNB-75 CNS
SR leukemia = test system: SR leukemia
SW-620 colon = test system: SW-620 colon
T-47D breast = test system: T-47D breast
TK-10 renal = test system: TK-10 renal
U251 CNS = test system: U251 CNS
UACC-257 melanoma = test system: UACC-257 melanoma
UACC-62 melanoma = test system: UACC-62 melanoma
UO-31 renal = test system: UO-31 renal
HCC-2998 colon = test system: HCC-2998 colon
LOX IMVI melanoma = test system: LOX IMVI melanoma
MALME-3M melanoma = test system: MALME-3M melanoma
NCI-H522 lung = test system: NCI-H522 lung
OVCAR-4 ovarian = test system: OVCAR-4 ovarian
SK-OV-3 ovarian = test system: SK-OV-3 ovarian

Measured: TGI

Cc1nc2c(=O)[nH]ncc2[nH]1
not listed: HCC-2998 colon | LOX IMVI melanoma | MALME-3M melanoma | NCI-H522 lung | OVCAR-4 ovarian | SK-OV-3 ovarian
> 100 µM: all other assays above

CC(=O)OCC1OC(Nc2ccc3nc(C)n(-c4ccccc4)c(=O)c3c2)C(OC(C)=O)C(OC(C)=O)C1OC(C)=O (configuration not stated)
20.4 µM: RPMI-8226 leukemia
not listed: A549 NSCLC | CCRF-CEM leukemia | M14 melanoma | SF-539 CNS | SK-OV-3 ovarian
> 50 µM: all other assays above

C=C(C)c1cc(C(C)(C)C)cc(C(=C)C)c1S(C)(=O)=O
not listed: RXF 393 renal | UACC-257 melanoma
> 100 µM: all other assays above

CCCCNC(=O)c1cc(S(=O)(=O)n2cc[nH]c2=O)c(SC)cc1Cl
97 µM: A498 renal
not listed: NCI-H226 lung | SF-268 CNS | SNB-75 CNS
> 100 µM: all other assays above

O=C1OC2C=CCC1C2 (configuration not stated)
not listed: RXF 393 renal | OVCAR-4 ovarian
> 100 µM: all other assays above
